The target in assay [1] is T1, α4β2δ GABAA receptors (UniProt O14764+P63138+Q9D6F4).
T1 construct: expressed in transfected cells
Briefly: Two-electrode voltage-clamp of recombinant GABAA receptors in oocytes. The class given is cell-based. (In general: Two-electrode voltage clamp is typically applied to oocytes expressing channels or transporters.)

In assay [2] the target is T2, α1β2δ receptors (oocytes injected with α1+β2+δ) (UniProt O14764+P62813+P63138).
T2 construct: expressed in transfected cells; host or cells: oocytes injected with cRNA (Xenopus laevis is named only)
The format is cell-based, rat α1, rat β2, human δ, expressed in Xenopus laevis oocytes. As to conditions: 1 μM zinc; 7 of 22 oocytes injected with α1+β2+δ. The text has this: (§1) Plasmids with inserts encoding GABAA receptor subunit sequence for rat α1 (62), rat β2 (83), rat α2 (62), rat α5 (62), mouse α4 (37), mouse β3 (82), rat β1 (83), rat γ2S (63), human δ (12), and human ε (11) were produced by subcloning each separately into an appropriate cloning vehicle such as PCDM8, pCDNA3.1 or pGHEMHE vectors (Invitrogen, Carlsbad Calif.) using a T7 promoter and standard subcloning techniques (59). Plasmids were linearized with an appropriate restriction enzyme at a site 3′ to the insert and cRNAs were synthesized using T3 or T7 polymerase (mMessage mMachine, Ambion, Tex.). The size of the cRNA was verified and RNA was quantified by ethidium bromide staining after electrophoresis on 1% agarose gels.
(§2) The preparation, injection, and maintenance of oocytes were carried out as described previously (78). Oocytes were injected with receptor subunit cRNAs (2 to 20 ng) in the following ratios: α1:β1:γ2S, α1:β2:γ2S and α1:β1:ε1, 1:1:1; α2:β1:γ2S, α5:β1:γ2S, α4:β1:γ2S, and α4:β2:γ2S, 10:1:1; α4:β1:δ, α4:β2:δ, α4:β3δ, 10:1:10; α1:β2:δ, 1:1:10 or 1:0.5:3; α1:β1:δ, 1:1:10 or 1:0.5:3; α2:β1:δ and α2:β2:δ, 1:0.5:3; α1:β1, α1:β2, α2:β1, α2:β2, β2:γ2S and α4δ, 1:1, α4:β1, α4:β2, α4:β3, 10:1, β2δ, 1:10.
(§3) Voltage-clamp recording was carried out 1 to 3 days after injection of cRNAs. Electrodes were filled with 3 M KCl and had resistances of 0.4-4 MΩ. Oocytes were positioned in a small Perspex chamber and continuously superfused with a saline solution (100 mM NaCl, 2 mM KCl, 1.8 mM CaCl2, 10 mM HEPES, pH 7.5). Agonists and modulators were both applied in the same saline solution. Oocytes were voltage-clamped at −70 mV and macroscopic currents were recorded with a two-electrode voltage-clamp using a Warner Instruments OC-725 amplifier as described previously (79). Currents were recorded on a chart recorder or by using Axograph on a Macintosh computer.
(§4) Other subunits (α1, α2, β1, β2) were tested for co-expression with the δ subunit. […]

Assay [3] deals with T3, α1β2δ receptors (oocytes injected with α1+β2+δ) (Rattus norvegicus, UniProt P62813+P63138).
T3 construct: expressed in transfected cells; host or cells: oocytes injected with cRNA (Xenopus laevis is named only)
The format is cell-based, human δ, expressed in Xenopus laevis oocytes. As to conditions: 1 μM zinc; the other 15 oocytes injected with α1+β2+δ.
Description: as §1, §2, §3, §4

The next assay addresses T4, α1β2 receptors (Rattus norvegicus, UniProt P62813+P63138).
T4 construct: expressed in transfected cells; host or cells: oocytes injected with cRNA (Xenopus laevis is named only)
In words: Two-electrode voltage-clamp of recombinant GABAA receptors in oocytes. The format is cell-based, expressed in Xenopus laevis oocytes. The settings on record: 1 μM zinc; n=5.
Description: as §1
The preparation, injection, and maintenance of oocytes were carried out as described previously (78). […]
Voltage-clamp recording was carried out 1 to 3 days after injection of cRNAs. […] Oocytes were voltage-clamped at −70 mV and macroscopic currents were recorded with a two-electrode voltage-clamp using a Warner Instruments OC-725 amplifier as described previously (79). Currents were recorded on a chart recorder or by using Axograph on a Macintosh computer. […]

Assay [4] deals with GABAA receptors of acutely isolated CA1 hippocampal pyramidal cells. In words: Whole cell patch clamp, ethanol or THIP effect on GABA-gated current. The format is cell-based, rat. The settings on record: after progesterone withdrawal. The procedure:
Pyramidal neurons were acutely dissociated from CA1 hippocampus and GABA-gated Cl^− currents analyzed using whole cell patch clamp procedures as previously described (67). Briefly, tissue was digested at 32° C. for 50-60 minutes under 100% O2 in PIPES-buffered saline containing (in mM): NaCl 120, KCl 5, CaCl2 1, MgCl2 1, D-glucose 25, PIPES 20 and trypsin (type XI, sigma) 0.8 mg/ml, pH 7.0. After 1 hour of enzyme-free incubation at room temperature, tissue was dissociated by trituration in 1 ml of 20 mM HEPES-buffered DMEM which was replaced by recording medium after transfer to the recording chamber. GABA-gated currents were recorded at room temperature (20-25° C.) at a holding potential of −50 mV in a bath containing (in mM): NaCl 120, CsCl 5, CaCl2 2, MgCl2 1, TEA Cl 15, 4-aminopyridine 5, HEPES 10 and glucose 25, pH 7.4, 320 mOsm/kg H2O. The pipette solution contained (in mM): N-methyl-D-glucamine chloride 120, Cs4BAPTA 5 and Mg-ATP 5. The ATP regeneration system Tris phosphocreatine (20 mM) and creatine kinase were added to minimize GABA rundown. All drugs were obtained from Sigma Chemical Co, (St. Louis, Mo.), except for BAPTA (Calbiochem, San, Diego, Calif.).
Peak currents were calculated for all drug concentrations as relative to the current gated by 10 μM GABA alone using the equation: ([peak current: GABA+ETOH]−[peak current: GABA alone])/[peak current: GABA alone]. Currents were recorded using an Axopatch 1D amplifier (Axon Instruments) filtered at 2 kHz (four-pole Bessel filter) and detected at 500 Hz (pClamp 5.1).
Following progesterone withdrawal or control conditions, pyramidal cells were acutely isolated from CA1 hippocampus as described (65,64). GABA-gated Cl^− currents were recorded using whole cell patch clamp techniques at a holding potential of −50 mV.
(The patch-clamp technique gives a direct electrical read-out from membranes.)

Assay [5] addresses T1, α4β2δ GABAA receptors. As to conditions: α4βδ receptors (ref. 6); cited from earlier work.
The next assay has as its system female Long Evans rats. Briefly: Acoustic startle response (ASR). The format is in vivo, rat. As to conditions: THIP 3 mg/kg i.p. The procedure: Animals were tested in a stabilimeter device (SR-Lab Startle Response System, San Diego Instruments, Inc., San Diego, Calif.) that permits vertical movement of a Plexiglas platform contained within a lit, well-ventilated sound-attenuating chamber (26). The amplitude of movement is detected by a piezoelectric device with a voltage output proportional to platform displacement. The analog output of the accelerometer is then amplified and digitized before computer analysis. Five minutes after i.p. administration of 10% ethanol (0.05-1.6 g/kg) or saline vehicle (1.5 ml volume) or 25 minutes after 4,5,6,7-tetrahydroisoxazolo[5,4-c]pyridin-3-ol injection (3 mg/kg, i.p.), animals were placed in the chamber for a 5 minutes acclimation period. […] Four acoustic stimuli (116 dB, 40 ms duration) were then presented at random intervals once every 10-15 seconds via a white-noise generator through speakers positioned on either side of the cage. […] For each acoustic stimulus, the amplitude and integrated response (amplitude and duration) were determined and normalized to the weight of the animal. Values for the integrated response after administration of each dose of ethanol or 4,5,6,7-tetrahydroisoxazolo[5,4-c]pyridin-3-ol were averaged and expressed as a fraction of the saline control average for the indicated treatment (progesterone withdrawal versus control) group in order to minimize variability between groups. […] It is also routinely used to assess behavioral excitability after withdrawal from BDZs and ethanol (73).
Animals were tested in a stabilimeter device (SR-Lab Startle Response System, San Diego Instruments, Inc.) that permitted vertical movement of a Plexiglas cage contained within a lit, well-ventilated, sound-attenuating chamber. The amplitude of movement was detected by a piezoelectric device with a voltage output proportional to cage displacement. The analog output of the accelerometer was amplified and digitized before computer analysis (15). Five minutes following intraperitoneal administration of alcohol (0.2 or 0.4 g/kg) or saline vehicle (1.5 ml volume), animals were placed in the chamber for 5 a minute acclimation period. Five acoustic stimuli (116 dB, 40 msec duration) were then presented once every 10-15 seconds via a white-noise generator through speakers positioned on either side of the cage. For each acoustic stimulus, the integrated response (amplitude and duration) was averaged across a 100 msec post-stimulus time period and the response latency determined. Both values were normalized to the weight of the animal. Values for the integrated response for the first noise stimulus following administration of each dose of alcohol were averaged and expressed as a fraction of the saline control average for the indicated treatment (P Wd versus control) group. […] It is routinely used to assess behavioral excitability following withdrawal from benzodiazepiness (48) and alcohol (73), and is known to be modified by GABA modulators, such as diazepam (11), and by local infusion of excitatory compounds into dorsal hippocampus (85).

The next assay relates to GABAR α4 subunit. Briefly: Western blot of α4 subunit in hippocampus after steroid and ethanol administration. The format is in vivo, rat. The settings on record: 48 hours of exposure to 3α,5β-THP (10 mg/kg i.p.), saline. The procedure:
(§5) Animals were administered steroids using one of two protocols: (i) For the 48 hour steroid administration protocol, animals were injected with 10 mg/kg 3α, 5β THP in oil, i.p., on a daily basis for three days and sacrificed 1-2 hour following the final injection. Controls were injected with oil vehicle. […] At this time, the capsule was removed and the animals were injected with 17 β estradiol (2 μgs/animal) in order to reset their cycle. Animals were sacrificed 24 hours later. […] In all cases, implantation and removal of capsules were performed under halothane anesthesia. […] Therefore, this study employed the 5β isomer of the steroid.
(§6) In some groups of animals, either ethanol (0.5 g/kg in saline) or saline vehicle was administered i.p. (3×, every 40 minutes) for the final 2 hours of the respective steroid administration or withdrawal paradigm. The use of multiple injections of low doses of ethanol would approximate ethanol consumption in the human more closely than would a single injection. For the 48 hour steroid administration paradigm, animals received their first ethanol injection immediately after the steroid injection, and subsequent injections at 40 minute intervals. In all cases, animals were sacrificed 40 minutes after the final ethanol injection (2 hours after the first ethanol injection and final steroid injection). All animal protocols were carried out with the approval of the Institutional Animal Care and Use Committee.
Hippocampi removed from steroid or vehicle-treated animals were homogenized, and membranes prepared as previously described (65). Following electrophoresis on 8% SDS polyacrylamide gels, membranes were transferred to a nitrocellulose membrane (Bio-Rad, Hercules, Calif.). α4 subunit levels were detected by evaluating the band density at 67 kDa after probing with a polyclonal antibody (64). Membranes were incubated for 1-2 hours at room temperature with a 1:5000 dilution of horseradish peroxidase-conjugated donkey anti-rabbit IgG (Amersham, Arlington Heights, Ill.), and visualized with enhanced chemiluminescence with varying concentrations of protein in the linear range. Immunoreactive band densities were quantified using a CCD camera (UMAX Scanner) and one-Dscan software, which uses multiple Gaussian fits to achieve accurate band density profiles.
(In western blotting, separated proteins are transferred to a membrane and probed.)

Assay [6] concerns GABAR of acutely dissociated CA1 hippocampal pyramidal neurons. Briefly: Whole cell patch clamp, lorazepam modulation and decay of GABA-gated current after steroid/ethanol treatment. The format is cell-based, rat. How it is done: as §5, §6
Currents were recorded using an Axopatch 1D amplifier (Axon Instruments) filtered at 2 kHz (four-pole Bessel filter) and detected at 500 Hz (pClamp 5.1).

T1 sequence (Q9D6F4 36-552): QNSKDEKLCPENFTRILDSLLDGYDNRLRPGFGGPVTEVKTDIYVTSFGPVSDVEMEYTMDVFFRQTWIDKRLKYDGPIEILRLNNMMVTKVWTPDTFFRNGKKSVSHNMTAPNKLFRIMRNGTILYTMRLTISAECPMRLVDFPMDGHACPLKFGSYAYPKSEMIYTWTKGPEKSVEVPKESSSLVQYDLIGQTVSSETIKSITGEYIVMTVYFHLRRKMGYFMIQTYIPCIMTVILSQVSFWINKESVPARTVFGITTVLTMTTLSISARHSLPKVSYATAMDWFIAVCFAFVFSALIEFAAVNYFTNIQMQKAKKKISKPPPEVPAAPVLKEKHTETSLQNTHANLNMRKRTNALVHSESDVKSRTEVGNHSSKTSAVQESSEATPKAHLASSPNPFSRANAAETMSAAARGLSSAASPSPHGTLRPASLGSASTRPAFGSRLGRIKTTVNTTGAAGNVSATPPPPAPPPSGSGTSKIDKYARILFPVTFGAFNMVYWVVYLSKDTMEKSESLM
T1 sequence (P63138 25-474 limits assumed): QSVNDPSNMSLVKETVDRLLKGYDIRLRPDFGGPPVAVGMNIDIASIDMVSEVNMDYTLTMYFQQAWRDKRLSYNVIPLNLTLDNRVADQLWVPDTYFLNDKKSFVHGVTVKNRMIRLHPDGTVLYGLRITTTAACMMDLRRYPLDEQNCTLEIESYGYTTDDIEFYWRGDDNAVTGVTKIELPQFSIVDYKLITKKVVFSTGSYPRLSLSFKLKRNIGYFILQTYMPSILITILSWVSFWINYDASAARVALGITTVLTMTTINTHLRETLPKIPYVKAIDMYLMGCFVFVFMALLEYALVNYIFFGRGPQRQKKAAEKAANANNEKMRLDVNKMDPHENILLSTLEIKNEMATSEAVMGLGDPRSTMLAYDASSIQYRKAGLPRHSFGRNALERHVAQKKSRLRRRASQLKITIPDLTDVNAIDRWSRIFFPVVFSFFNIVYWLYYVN
T1 sequence (O14764 17-452 limits assumed): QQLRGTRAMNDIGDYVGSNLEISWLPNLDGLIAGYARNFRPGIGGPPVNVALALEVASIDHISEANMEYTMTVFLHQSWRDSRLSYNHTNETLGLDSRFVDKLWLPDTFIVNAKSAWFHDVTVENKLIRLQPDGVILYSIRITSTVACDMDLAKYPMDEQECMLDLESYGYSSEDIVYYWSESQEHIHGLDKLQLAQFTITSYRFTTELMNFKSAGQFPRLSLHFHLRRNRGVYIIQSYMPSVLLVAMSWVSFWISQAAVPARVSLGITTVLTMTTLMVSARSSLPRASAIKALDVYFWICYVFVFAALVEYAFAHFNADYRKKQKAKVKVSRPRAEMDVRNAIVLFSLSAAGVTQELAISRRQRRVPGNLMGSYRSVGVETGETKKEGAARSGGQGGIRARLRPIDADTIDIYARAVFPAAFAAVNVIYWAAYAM
T3 sequence (P62813 28-455): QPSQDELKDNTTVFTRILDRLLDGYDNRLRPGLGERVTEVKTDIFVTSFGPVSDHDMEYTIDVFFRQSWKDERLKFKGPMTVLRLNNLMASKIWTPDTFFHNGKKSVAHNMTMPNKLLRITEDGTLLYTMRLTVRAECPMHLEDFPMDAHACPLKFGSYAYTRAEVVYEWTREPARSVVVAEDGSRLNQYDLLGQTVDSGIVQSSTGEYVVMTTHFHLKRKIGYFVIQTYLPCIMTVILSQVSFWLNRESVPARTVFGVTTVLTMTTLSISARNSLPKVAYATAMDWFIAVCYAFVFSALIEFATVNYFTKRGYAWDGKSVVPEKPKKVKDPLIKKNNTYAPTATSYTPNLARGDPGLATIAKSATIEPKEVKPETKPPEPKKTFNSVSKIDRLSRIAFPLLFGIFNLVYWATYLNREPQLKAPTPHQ
T3 sequence (P63138 26-474): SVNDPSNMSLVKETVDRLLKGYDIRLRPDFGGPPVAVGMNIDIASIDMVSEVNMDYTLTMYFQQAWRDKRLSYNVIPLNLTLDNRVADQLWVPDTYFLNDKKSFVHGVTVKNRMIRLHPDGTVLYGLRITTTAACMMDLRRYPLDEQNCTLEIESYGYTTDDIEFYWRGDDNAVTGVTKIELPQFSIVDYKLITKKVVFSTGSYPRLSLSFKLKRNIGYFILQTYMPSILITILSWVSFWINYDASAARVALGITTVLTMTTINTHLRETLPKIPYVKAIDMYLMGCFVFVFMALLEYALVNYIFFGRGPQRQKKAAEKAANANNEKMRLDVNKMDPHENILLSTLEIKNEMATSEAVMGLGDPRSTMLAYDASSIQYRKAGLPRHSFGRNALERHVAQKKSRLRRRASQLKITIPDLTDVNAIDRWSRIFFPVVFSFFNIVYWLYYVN
T4 sequence (P62813 28-455): as the sequence (P62813 28-455) above
T4 sequence (P63138 25-474 limits assumed): as the sequence (P63138 25-474 limits assumed) above
T2 sequence (P62813 28-455): as the sequence (P62813 28-455) above
T2 sequence (P63138 26-474): as the sequence (P63138 26-474) above
T2 sequence (O14764 25-452): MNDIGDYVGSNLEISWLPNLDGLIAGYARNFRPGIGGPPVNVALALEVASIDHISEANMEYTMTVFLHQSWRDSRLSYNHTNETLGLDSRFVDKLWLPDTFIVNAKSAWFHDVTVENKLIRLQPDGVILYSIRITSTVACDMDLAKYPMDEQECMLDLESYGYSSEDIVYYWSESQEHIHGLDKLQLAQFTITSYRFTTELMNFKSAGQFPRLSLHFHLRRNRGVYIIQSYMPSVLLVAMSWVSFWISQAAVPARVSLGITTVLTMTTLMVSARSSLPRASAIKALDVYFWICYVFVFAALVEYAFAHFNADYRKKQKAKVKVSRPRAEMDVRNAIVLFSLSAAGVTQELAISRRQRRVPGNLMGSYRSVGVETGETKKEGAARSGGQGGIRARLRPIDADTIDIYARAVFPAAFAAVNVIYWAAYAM

For the compound `[La]` [lanthanum], the “inhibition of currents at α4β2δ receptors” value on α4β2δ GABAA receptors [1] (La3+ 300 μM) was found to be 80%.

Take `[Zn]` [zinc]: the “zinc inhibition of GABA currents” value in [2] turned out to be 49.1±6.4%; in [3] it was 66.4±6.4%; at α1β2 receptors, 72.4±6.9%.

With `Oc1noc2c1CCNC2` [THIP, 4,5,6,7-tetrahydroisoxazolo[5,4-c]pyridin-3-ol], the “efficacy of THIP relative to GABA (maximum current)” value in assay [4] is “increased efficacy”. In addition, at α4β2δ GABAA receptors [1] (oocytes injected with α4+β2+δ subunits), the “ratio of currents induced by THIP:GABA” value amounted to 1.24. Further, the “maximum current compared to that gated by GABA at α4βδ” value at α4β2δ GABAA receptors [5] was “greater maximum current”. For the same compound, in the assay on female Long Evans rats (P withdrawn animals), the “attenuation of ASR” value came to 70%. In the assay with female Long Evans rats (control animals), the “increase of ASR” value is listed as “about 40%”.

As to `CC(=O)[C@H]1CC[C@H]2[C@@H]3CC[C@@H]4C[C@H](O)CC[C@]4(C)[C@H]3CC[C@]12C` [3α, 5β-THP], in the assay on GABAR α4 subunit, the “increase of α4 expression compared to control” value is reported as “threefold”.

Regarding `O=C1Nc2ccc(Cl)cc2C(c2ccccc2Cl)=NC1O` (stereo not shown) [LZM, lorazepam], in [6] (10 μM LZM, 48 h 3α,5β-THP with 2 h ethanol), the “maximal potentiation of GABA-gated current” value stood at 90%. The “potentiation of GABA-gated current” value in [6] (10 μM LZM, 48 h 3α,5β-THP, saline-treated rats) is recorded as 12-15%. In assay [6] (2 hours of ethanol after progesterone withdrawal), the “LZM-induced potentiation of GABA-gated current” value is on record as “robust”.

The values are drawn from patent US7816074B2, “α4 β2 δGABA-A receptors as a strategy for PMS and alcoholism” (priority 2003, dated 2010).
